Experimental data taken from US11566039B2, “Lincosamide antibiotics and uses thereof” (President and Fellows of Harvard College, priority 2017, dated 2023).
Converted amounts (≈) assume the structure as drawn. Like-named read-outs stand apart in the source and are kept apart here.

Legend:
Format in all cases: cell-based
S. aureus ATCC 29213 = test: MIC against S. aureus ATCC 29213; conditions: Staphylococcus aureus, ATCC29213, S. aureus ATCC 29213; read-out: MIC
[1] = tested on: S. aureus MP-549 msr(a) USA 300; test: MIC against S. aureus MP-549 msr(a) USA 300; conditions: Staphylococcus aureus, USA300, S. aureus MP-549 msr(a) USA 300
S. aureus MMX 3035 cErmA = test: MIC against S. aureus MMX 3035 cErmA; conditions: Staphylococcus aureus, MMX3035CERMA
S. pneumoniae ATCC 49619 = test: MIC against S. pneumoniae ATCC 49619; conditions: Streptococcus pneumoniae, ATCC49619, S. pneumoniae ATCC 49619; read-out: MIC
[2] = tested on: S. pneumoniae MMX 3028 cErmB; test: MIC against S. pneumoniae MMX 3028 cErmB; conditions: Streptococcus pneumoniae, MMX3028CERMB
[3] = tested on: S. pneumoniae MMX 3031 cMefA; test: MIC against S. pneumoniae MMX 3031 cMefA; conditions: Streptococcus pneumoniae, MMX3031CMEFA
S. pyogenes ATCC 19615 = test: MIC against S. pyogenes ATCC 19615; conditions: Streptococcus pyogenes, ATCC19615, S. pyogenes ATCC 19615; read-out: MIC
[4] = tested on: S. pyogenes MMX 946 Macrolide-Resistant; test: MIC against S. pyogenes MMX 946 Macrolide-Resistant; conditions: Streptococcus pyogenes
E. faecalis ATCC 29212 = test: MIC against E. faecalis ATCC 29212; conditions: Enterococcus faecalis, ATCC29212, E. faecalis ATCC 29212; read-out: MIC
E. coli ATCC 25922 = test: MIC against E. coli ATCC 25922; conditions: Escherichia coli, ATCC25922, read-out: MIC
E. coli MP-9 ΔTolC = test: MIC against E. coli MP-9 ΔTolC; conditions: Escherichia coli
[5] = tested on: E. faecalis MMX 847 MacRes; test: MIC against E. faecalis MMX 847 MacRes; conditions: Enterococcus faecalis, MMX847MACRES
S. aureus BAA 977 iErmA = test: MIC against S. aureus BAA 977 iErmA; conditions: Staphylococcus aureus, BAA977
C. difficile BAA 1805 = test: MIC against C. difficile BAA 1805; conditions: Clostridioides difficile, BAA1805
B. fragilis ATCC 25285 = test: MIC against B. fragilis ATCC 25285; conditions: Bacteroides fragilis, ATCC25285
K. pneumoniae ATCC 10031 = test: MIC against K. pneumoniae ATCC 10031; conditions: Klebsiella pneumoniae, ATCC10031, read-out: MIC
[6] = tested on: E. coli MP-74 LptD mutant; test: MIC against E. coli MP-74 LptD mutant; conditions: Escherichia coli
H. influenzae ATCC 49247 = test: MIC against H. influenzae ATCC 49247; conditions: Haemophilus influenzae, ATCC49247, H. influenzae ATCC 49247; read-out: MIC
[7] = S. pneumoniae MMX 3028 cErmB, read-out: MIC
[8] = S. pyogenes MMX 946 Macrolide-Resistant (MacRes), read-out: MIC

| Structure (SMILES) | MIC (S. aureus ATCC 29213) | MIC [1] | MIC (S. aureus MMX 3035 cErmA) | MIC (S. pneumoniae ATCC 49619) | MIC [2, 7] | MIC [3] | MIC (S. pyogenes ATCC 19615) | MIC [4, 8] | MIC (E. faecalis ATCC 29212) | MIC (E. coli ATCC 25922) | MIC (E. coli MP-9 ΔTolC) | MIC [5] | MIC (S. aureus BAA 977 iErmA) | MIC (C. difficile BAA 1805) | MIC (B. fragilis ATCC 25285) | MIC (K. pneumoniae ATCC 10031) | MIC [6] | MIC (H. influenzae ATCC 49247) | MIC [2] | MIC [4] |
| --- | --- | --- | --- | --- | --- | --- | --- | --- | --- | --- | --- | --- | --- | --- | --- | --- | --- | --- | --- | --- |
| CCC[C@@H]1C[C@@H](C(=O)N[C@H](CN=[N+]=[N-])[C@H]2OC(SC)[C@H](O)C(O)C2O)N(C)C1 (stereo partly drawn) [FSA-215003] | 8 µg/mL (≈ 19.2 µM) | 0.125 µg/mL (≈ 0.299 µM) | > 64 µg/mL | 4 µg/mL (≈ 9.58 µM) | > 64 µg/mL | 0.125 µg/mL (≈ 0.299 µM) | 2 µg/mL (≈ 4.79 µM) | > 64 µg/mL | 32 µg/mL (≈ 76.6 µM) | > 64 µg/mL | 4 µg/mL (≈ 9.58 µM) | > 64 µg/mL |  |  |  |  |  |  |  |  |
| CCC[C@@H]1C[C@@H](C(=O)N[C@H](CNc2ccc(-c3cccnc3)cc2)[C@H]2OC(SC)[C@H](O)C(O)C2O)N(C)C1 (stereo partly drawn) [FSA-214087] | 32 µg/mL (≈ 58.7 µM) | 32 µg/mL (≈ 58.7 µM) | > 64 µg/mL | 8 µg/mL (≈ 14.7 µM) | > 64 µg/mL | 32 µg/mL (≈ 58.7 µM) | 8 µg/mL (≈ 14.7 µM) | > 64 µg/mL | > 64 µg/mL | > 64 µg/mL | > 64 µg/mL | > 64 µg/mL |  |  |  |  |  |  |  |  |
| CCC[C@@H]1C[C@@H](C(=O)N[C@H]([C@H](C)NC(=O)CNC)[C@H]2OC(SC)[C@H](O)C(O)C2O)N(C)C1 (stereo partly drawn) [FSA-215078a] | > 64 µg/mL | > 64 µg/mL |  | 16 µg/mL (≈ 33.6 µM) |  |  | 8 µg/mL (≈ 16.8 µM) |  | > 64 µg/mL | > 64 µg/mL | > 64 µg/mL |  | > 64 µg/mL | > 64 µg/mL | > 64 µg/mL | > 64 µg/mL | > 64 µg/mL | > 64 µg/mL |  |  |
| CCC[C@@H]1C[C@@H](C(=O)N[C@@H]([C@H]2O[C@H](SC)[C@H](O)[C@@H](O)[C@H]2O)[C@H](C)Cl)N(C)C1 [Clindamycin, clindamycin, reference compound] |  | 0.125 µg/mL (≈ 0.294 µM) |  | 0.12 µg/mL (≈ 0.282 µM) |  | 0.06 µg/mL (≈ 0.141 µM) | 0.06 µg/mL (≈ 0.141 µM) |  | 16 µg/mL (≈ 37.6 µM) |  | 8 µg/mL (≈ 18.8 µM) |  |  | 8 µg/mL (≈ 18.8 µM) | 0.5 µg/mL (≈ 1.18 µM) | 8 µg/mL (≈ 18.8 µM) | 2 µg/mL (≈ 4.71 µM) | 16 µg/mL (≈ 37.6 µM) | > 64 µg/mL | > 64 µg/mL |
| CCC[C@@H]1C[C@@H](C(=O)N[C@H]([C@H](C)NC)[C@H]2OC(SC)[C@H](O)C(O)C2O)N(C)C1 (stereo partly drawn) [FSA-215082] | 64 µg/mL (≈ 153 µM) | > 64 µg/mL |  | 16 µg/mL (≈ 38.1 µM) |  |  | 32 µg/mL (≈ 76.3 µM) |  | > 64 µg/mL | > 64 µg/mL | > 64 µg/mL |  | 64 µg/mL (≈ 153 µM) | > 64 µg/mL | > 64 µg/mL | > 64 µg/mL | > 64 µg/mL | > 64 µg/mL |  |  |
